The target of one test is human NK-3 receptor (Homo sapiens (Human), UniProt P29371). Description: 3H-SB222200 binding competition assay with human NK-3 receptor. As to conditions: 3H-SB222200 displacement, CHO cell membranes expressing human NK3 receptor; read-out: Ki range. Put shortly:
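Membranes from CHO cells expressing human NK3 receptor incubated with 5 nM 3H-SB222200 and test compound in HEPES 25 mM/NaCl 0.1M/CaCl2 1 mM/MgCl2 5 mM/BSA 0.5%/saponin 10 μg/ml, pH 7.4. Bound radioligand counted after filtration; Ki calculated, reported in bands (+++ <500 nM to # >5 μM).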

The subject of test [1] is circulating levels of luteinizing hormone (LH). Description: Castrated male rat model, circulating levels of luteinizing hormone (LH). The format is in vivo. As to conditions: castrated male SD rats, single intravenous dose (156 and 144: 10 mg/kg; 71: 15 mg/kg; 114: 20 mg/kg), 60 min post dosing (156 also 120 min), vs. baseline.
Test [2] deals with circulating levels of testosterone. Description: Gonad-intact adult male rat, circulating levels of testosterone. The format is in vivo. As to conditions: gonad-intact male SD rats, single intravenous 20 mg/kg dose, over 420 min (AUC). As to the method: Plasma testosterone levels are represented as an integrated testosterone response (AUC) over a 420 min period following dosing. […] Membrane suspensions were prepared from these cells. The following radioligand: [^125I]-His-MePhe7-Neurokinin B (PerkinElmer Cat # NEX285) was used in this assay. Binding assays were performed in a […]/1 mM CaCl2/5 mM MgCl2/0.5% BSA/10 μg/ml Saponin, at pH 7.4. Binding assays consisted of 25 μl of membrane suspension (approximately 5 μg protein/well in a 96 well plate), 50 μl of compound or reference ligand (MePhe7-Neurokinin B) at increasing concentrations (diluted in assay buffer) and 0.09 nM [^125I]-His-MePhe7-Neurokinin B. The plate was incubated 60 min at 25° C. in a water bath and then filtered over GF/C filters (Perkin Elmer, 6005174, presoaked in assay buffer without saponine for 2 h at room temperature) with a Filtration unit (Perkin Elmer). The radioactivity retained on the filters was measured by using the TopCount-NXT reader (Packard). […]

Broadly, the Ki is a dissociation constant, usually derived from enzyme kinetics or from competition with a known ligand.

Chain of human NK-3 receptor (P29371 whole entry): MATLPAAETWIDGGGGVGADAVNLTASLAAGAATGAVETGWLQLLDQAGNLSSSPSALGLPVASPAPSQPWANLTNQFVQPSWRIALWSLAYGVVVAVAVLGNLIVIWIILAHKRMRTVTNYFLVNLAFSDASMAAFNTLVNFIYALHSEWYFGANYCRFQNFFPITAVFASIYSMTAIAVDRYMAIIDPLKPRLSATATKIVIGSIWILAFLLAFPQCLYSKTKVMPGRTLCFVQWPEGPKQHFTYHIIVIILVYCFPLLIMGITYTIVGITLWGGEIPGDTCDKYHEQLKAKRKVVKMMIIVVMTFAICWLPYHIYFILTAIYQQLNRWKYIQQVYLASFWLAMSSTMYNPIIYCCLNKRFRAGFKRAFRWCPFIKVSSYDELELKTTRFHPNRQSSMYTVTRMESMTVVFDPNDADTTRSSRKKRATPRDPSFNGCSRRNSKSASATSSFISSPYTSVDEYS

In the case of `CC1c2nnc(-c3coc(-c4ccccc4)n3)n2CCN1C(=O)c1ccc(-c2cccs2)cc1` (stereo not shown) [Compound 114, (8-methyl-3-(2-phenyloxazol-4-yl)-5,6-dihydro-[1,2,4]triazolo[4,3-a]pyrazin-7(8H)-yl)(4-(thiophen-2-yl)phenyl)methanone], the Ki at human NK-3 receptor is under 500 nM. Moreover, in test [1], the “effect on LH serum levels” value was “significantly suppressed GnRH-mediated elevation of LH”.

Consider `C[C@@H]1c2nnc(-c3ccc4ccccc4n3)n2CCN1C(=O)c1ccc(-c2cccs2)cc1` [Compound 144, (R)-(8-methyl-3-(quinolin-2-yl)-5,6-dihydro-[1,2,4]triazolo[4,3-a]pyrazin-7(8H)-yl)(4-(thiophen-2-yl)phenyl)methanone], for which the inhibition constant Ki at human NK-3 receptor was under 500 nM. The “effect on LH serum levels” value in test [1] is “significantly suppressed GnRH-mediated elevation of LH”.

Regarding `C[C@@H]1c2nnc(-c3csc(-c4ccc(F)cc4F)n3)n2CCN1C(=O)c1ccc(-c2cccs2)cc1` [Compound 156, (R)-(3-(2-(2,4-difluorophenyl)thiazol-4-yl)-8-methyl-5,6-dihydro-[1,2,4]triazolo[4,3-a]pyrazin-7(8H)-yl)(4-(thiophen-2-yl)phenyl)methanone], the Ki at human NK-3 receptor was under 500 nM. In addition, the “effect on LH serum levels” value in test [1] is recorded as “significantly suppressed GnRH-mediated elevation of LH”. Also, the “effect on plasma testosterone levels” value in test [2] was “significantly suppressed plasma testosterone levels”.

Values taken from patent US10544150B2, “NK-3 receptor selective antagonist compounds, pharmaceutical composition and methods for use in NK-3 receptors mediated disorders” (Ogeda SA, priority 2010, dated 2020).
